Where two headings read alike, the source gives them in different places.
How the values were obtained:
clinical [1] = experiment: clinical
Excerpt: (§1) All other markers were obtained from commercial sources. Urine and saliva were collected prior to each day's dosing of marker confirming the presence or absence of markers before the experiment started. […] The presence of all 7 markers at day 8 would confirm that all markers were ingested in the previous 7 day one week period.
(§2) Healthy volunteers with no recent exposure to the markers who were not currently taking prescribed medications, OTC medications or vitamins and supplements were chosen. Exposure to the markers more than one month before starting the experiment was allowed and no dietary restrictions were required. Subjects were given a 7 day blister pack with markers sequenced in the order above. Subjects verbally confirmed they understood the urine and saliva collection procedures. Instructions printed on the marker blister pack instructed subjects to collect urine and saliva each morning before they took the daily dose of marker. They were also instructed to take the daily dose of marker close to the same time each day.

clinical [2] = details: human, in vivo
Excerpt: as §1, §2

[3] = human, in vivo
clinical [4] = details: human, in vivo, Urine Results
[5] = Multiple Marker Experiment 2: urine samples, simulated non-adherence (one marker dose skipped per subject), LC-MS/MS; details: for Subject B, Urine Results / Subject C, Urine Results: collected before that day's dose; for Subject B, Urine Results / Subject C, Urine Results / concentration at 8 day: other markers dosed once; for concentration at 8 day: Urine Results, Day 8 sample
[6] = human, in vivo, Average of Urine Samples
[7] = Day 1 sample, collected before that day's dose, Experiment #1, adherent with all markers, each marker dosed once
[8] = Day 2 sample, collected before that day's dose, Experiment #1, adherent with all markers, each marker dosed once
[9] = Day 3 sample, collected before that day's dose, Experiment #1, adherent with all markers, each marker dosed once
[10] = Day 4 sample, collected before that day's dose, Experiment #1, adherent with all markers, each marker dosed once
[11] = Day 5 sample, collected before that day's dose, Experiment #1, adherent with all markers, each marker dosed once
[12] = Day 6 sample, collected before that day's dose, Experiment #1, adherent with all markers, each marker dosed once
[13] = Day 7 sample, collected before that day's dose, Experiment #1, adherent with all markers, each marker dosed once
[14] = Day 8 sample, Experiment #1, adherent with all markers, each marker dosed once

O=C1O[C@H]([C@@H](O)CO)C(O)=C1O [Ascorbic Acid]
Subject C, Urine Results (clinical [1]; human, in vivo, 1 day): 1290 ng/m
Subject D, Urine Results (clinical [1]; human, in vivo, 1 day): 4167 ng/m
Subject C, Urine Results (clinical [1]; human, in vivo, 2 day): 2106 ng/m
Subject D, Urine Results (clinical [1]; human, in vivo, 2 day): 2789 ng/m
Subject C, Urine Results (clinical [1]; human, in vivo, 3 day): 1947 ng/m
Subject D, Urine Results (clinical [1]; human, in vivo, 3 day): 3626 ng/m
Subject C, Urine Results (clinical [1]; human, in vivo, 4 day): 1892 ng/m
Subject D, Urine Results (clinical [1]; human, in vivo, 4 day): 3426 ng/m
Subject C, Urine Results (clinical [1]; human, in vivo, 5 day): 2503 ng/m
Subject D, Urine Results (clinical [1]; human, in vivo, 5 day): 2268 ng/m
Subject C, Urine Results (clinical [1]; human, in vivo, 6 day): 1812 ng/m
Subject D, Urine Results (clinical [1]; human, in vivo, 6 day): 3024 ng/m
Subject C, Urine Results (clinical [1]; human, in vivo, 7 day): 1751 ng/m
Subject D, Urine Results (clinical [1]; human, in vivo, 7 day): 3908 ng/m
Subject C, Urine Results (clinical [1]; human, in vivo, 8 day): 2020 ng/m
Subject D, Urine Results (clinical [1]; human, in vivo, 8 day): 2894 ng/m
concentration at 1 day (clinical [1]; [6]): 1960 ng/mL
concentration at 2 day (clinical [1]; [6]): 2100 ng/mL
concentration at 3 day (clinical [1]; [6]): 2260 ng/mL
concentration at 4 day (clinical [1]; [6]): 2660 ng/mL
concentration at 5 day (clinical [1]; [6]): 2030 ng/mL
concentration at 6 day (clinical [1]; [6]): 1960 ng/mL
concentration at 7 day (clinical [1]; [6]): 2560 ng/mL
concentration at 8 day (clinical [1]; [6]): 2100 ng/mL
concentration at 7 day (clinical [1]; human, in vivo, Subject A, Urine Results): 2800 ng/mL
course of urine levels relative to dosing (clinical [1]; in vivo): did not differ significantly from baseline levels
concentration at 1 day (clinical [2]): 30.7 ng/mL
concentration at 2 day (clinical [2]): 33.6 ng/mL
concentration at 3 day (clinical [2]): 32.8 ng/mL
concentration at 4 day (clinical [2]): 33.3 ng/mL
concentration at 5 day (clinical [2]): 23.8 ng/mL
concentration at 6 day (clinical [2]): 36.2 ng/mL
concentration at 7 day (clinical [2]): 36.8 ng/mL
concentration at 8 day (clinical [2]): 27 ng/mL
course of urine levels relative to dosing [3]: did not differ significantly from baseline levels
concentration at 7 day (clinical [4]; Subject A): 2920 ng/mL
concentration at 1 day (clinical [4]; Subject C): 1870 ng/mL
concentration at 2 day (clinical [4]; Subject C): 2490 ng/mL
concentration at 3 day (clinical [4]; Subject C): 4540 ng/mL
concentration at 4 day (clinical [4]; Subject C): 2520 ng/mL
concentration at 5 day (clinical [4]; Subject C): 5290 ng/mL
concentration at 6 day (clinical [4]; Subject C): 1040 ng/mL
concentration at 7 day (clinical [4]; Subject C): 1840 ng/mL
concentration at 8 day (clinical [4]; Subject C): 1610 ng/mL
concentration at 3 day (clinical [4]; Subject D): 4900 ng/mL
concentration at 4 day (clinical [4]; Subject D): 4930 ng/mL
concentration at 5 day (clinical [4]; Subject D): 5020 ng/mL
concentration at 6 day (clinical [4]; Subject D): 4400 ng/mL
concentration at 8 day (clinical [4]; Subject D): 4320 ng/mL

COc1ccc2c(c1)[C@]13CCCC[C@@H]1[C@H](C2)N(C)CC3 [DXM, Dextromethorphan]
Subject B, Urine Results ([5]; Day 1 sample, Experiment #2, subject B skipped diphenhydramine on day 5): 0 ng/mL
Subject C, Urine Results ([5]; Day 1 sample, Experiment #2, subject C skipped Loperamide on day 2): 0 ng/mL
Subject B, Urine Results ([5]; Day 2 sample, Experiment #2, subject B skipped diphenhydramine on day 5): 0 ng/mL
Subject C, Urine Results ([5]; Day 2 sample, Experiment #2, subject C skipped Loperamide on day 2): 0 ng/mL
Subject B, Urine Results ([5]; Day 3 sample, Experiment #2, subject B skipped diphenhydramine on day 5): 0 ng/mL
Subject C, Urine Results ([5]; Day 3 sample, Experiment #2, subject C skipped Loperamide on day 2): 0 ng/mL
Subject B, Urine Results ([5]; Day 4 sample, Experiment #2, subject B skipped diphenhydramine on day 5): 2640 ng/mL
Subject C, Urine Results ([5]; Day 4 sample, Experiment #2, subject C skipped Loperamide on day 2): 377 ng/mL
Subject B, Urine Results ([5]; Day 5 sample, Experiment #2, subject B skipped diphenhydramine on day 5): 181 ng/mL
Subject C, Urine Results ([5]; Day 5 sample, Experiment #2, subject C skipped Loperamide on day 2): 40 ng/mL
Subject B, Urine Results ([5]; Day 6 sample, Experiment #2, subject B skipped diphenhydramine on day 5): 14.7 ng/mL
Subject C, Urine Results ([5]; Day 6 sample, Experiment #2, subject C skipped Loperamide on day 2): 1.35 ng/mL
Subject B, Urine Results ([5]; Day 7 sample, Experiment #2, subject B skipped diphenhydramine on day 5): 16.6 ng/mL
Subject C, Urine Results ([5]; Day 7 sample, Experiment #2, subject C skipped Loperamide on day 2): 1.11 ng/mL
course of urine levels relative to dosing ([5]; Experiment 2, days 1-8): zero before dosing, peaked the day after dosing and slowly decreased over time
concentration at 1 day ([5]; human, in vivo): 0 ng/mL
concentration at 2 day ([5]; human, in vivo): 0 ng/mL
concentration at 3 day ([5]; human, in vivo): 0 ng/mL
concentration at 8 day ([5]; human, in vivo, Subject B, Experiment #2, subject B skipped diphenhydramine on day 5): 2.63 ng/mL
concentration at 8 day ([5]; human, in vivo, Subject C, Experiment #2, subject C skipped Loperamide on day 2): 0.15 ng/mL
Subject A, Urine Results (clinical [1]; [7]): 0 ng/mL
Subject B, Urine Results (clinical [1]; [7]): 0 ng/mL
Subject C, Urine Results (clinical [1]; [7]): 0 ng/m
Subject D, Urine Results (clinical [1]; [7]): 0 ng/m
Subject A, Urine Results (clinical [1]; [8]): 0 ng/mL
Subject B, Urine Results (clinical [1]; [8]): 0 ng/mL
Subject C, Urine Results (clinical [1]; [8]): 0 ng/m
Subject D, Urine Results (clinical [1]; [8]): 0 ng/m
Subject A, Urine Results (clinical [1]; [9]): 0 ng/mL
Subject B, Urine Results (clinical [1]; [9]): 0 ng/mL
Subject C, Urine Results (clinical [1]; [9]): 0 ng/m
Subject D, Urine Results (clinical [1]; [9]): 0 ng/m
Subject A, Urine Results (clinical [1]; [10]): 146 ng/mL
Subject B, Urine Results (clinical [1]; [10]): 358 ng/mL
Subject C, Urine Results (clinical [1]; [10]): 187 ng/m
Subject D, Urine Results (clinical [1]; [10]): 641 ng/m
Average of Urine Samples (clinical [1]; Day 4 sample, collected before that day's dose, average of subjects A, B, C, D, Experiment 1, each marker dosed once): 333 ng/mL
Subject A, Urine Results (clinical [1]; [11]): 11.7 ng/mL
Subject B, Urine Results (clinical [1]; [11]): 31.4 ng/mL
Subject C, Urine Results (clinical [1]; [11]): 15 ng/m
Subject D, Urine Results (clinical [1]; [11]): 51.8 ng/m
Average of Urine Samples (clinical [1]; Day 5 sample, collected before that day's dose, average of subjects A, B, C, D, Experiment 1, each marker dosed once): 27.475 ng/mL
Subject A, Urine Results (clinical [1]; [12]): 3.6 ng/mL
Subject B, Urine Results (clinical [1]; [12]): 17.8 ng/mL
Subject C, Urine Results (clinical [1]; [12]): 4.84 ng/m
Subject D, Urine Results (clinical [1]; [12]): 4.53 ng/m
Average of Urine Samples (clinical [1]; Day 6 sample, collected before that day's dose, average of subjects A, B, C, D, Experiment 1, each marker dosed once): 7.6925 ng/mL
Subject A, Urine Results (clinical [1]; [13]): 0.987 ng/mL
Subject B, Urine Results (clinical [1]; [13]): 3.96 ng/mL
Subject C, Urine Results (clinical [1]; [13]): 2.12 ng/m
Subject D, Urine Results (clinical [1]; [13]): 2.61 ng/m
Average of Urine Samples (clinical [1]; Day 7 sample, collected before that day's dose, average of subjects A, B, C, D, Experiment 1, each marker dosed once): 2.419 ng/mL
Subject C, Urine Results (clinical [1]; [14]): 0.787 ng/m
Subject D, Urine Results (clinical [1]; [14]): 1.26 ng/m
course of urine levels relative to dosing (clinical [1]; Experiment 1, days 1-8): zero before dosing, peaked the day after dosing and slowly decreased over time
concentration at 1 day (clinical [1]; human, in vivo): 0 ng/mL
concentration at 2 day (clinical [1]; human, in vivo): 0 ng/mL
concentration at 3 day (clinical [1]; human, in vivo): 0 ng/mL
concentration at 8 day (clinical [1]; human, in vivo, Average of Urine Samples, Day 8 sample, average of subjects A, B, C, D, Experiment 1, each marker dosed once): 1.49 ng/mL
concentration at 8 day (clinical [1]; human, in vivo, Subject A, Urine Results, Day 8 sample, Experiment #1, adherent with all markers, each marker dosed once): 0.341 ng/mL
concentration at 8 day (clinical [1]; human, in vivo, Subject B, Urine Results, Day 8 sample, Experiment #1, adherent with all markers, each marker dosed once): 3.56 ng/mL
concentration at 1 day (clinical [2]): 0 ng/mL
concentration at 2 day (clinical [2]): 0 ng/mL
concentration at 3 day (clinical [2]): 0 ng/mL
concentration at 4 day (clinical [2]): 8.4 ng/mL
concentration at 5 day (clinical [2]): 1.52 ng/mL
concentration at 6 day (clinical [2]): 0.501 ng/mL
concentration at 7 day (clinical [2]): 0.439 ng/mL
concentration at 8 day (clinical [2]): 0.197 ng/mL
